According to patent publication US7553864B2, “Compounds for the treatment of inflammatory disorders and microbial diseases” (Schering Corporation, priority 2005, dated 2009):

System: LpxC enzyme
Assay: LpxC enzyme assay (RapidFire high-throughput mass spectrometry)
Assay type: biochemical
In short: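 0.2 nM enzyme with 1.0 μM UDP-3-O-(R-3-hydroxymyristoyl)-N-acetylglucosamine in 25 mM HEPES pH 7.3, 150 mM NaCl, 2.0 mM DTT, 0.01% BSA, 2% DMSO; 60 min at room temperature, quenched with HCl. Substrate and product quantified by RapidFire mass spectrometry; percent conversion gives percent inhibition versus DMSO control.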

[1] = concentration 0.10 (unit not given)
[2] = concentration 0.20 (unit not given)
[3] = concentration 0.39 (unit not given)
[4] = concentration 0.78 (unit not given)
[5] = concentration 1.56 (unit not given)
[6] = concentration 3.13 (unit not given)
[7] = concentration 6.25 (unit not given)
[8] = concentration 12.50 (unit not given)
[9] = concentration 25 (unit not given)
[10] = concentration 50 (unit not given)

Measured: LpxC enzyme assay rating (% inhibition at indicated concentrations)

CCCCc1ccc(NC(=O)[C@H](O)[C@@H](O)C(=O)N2CCCC2)cc1 [Compound 66]
C (less than 10% inhibition): [1] | [2] | [4]
B (10-30% inhibition): [3] | [5] | [6] | [7] | [8] | [10]
A (greater than 30% inhibition): [9]

CCCc1ccc(NC(=O)[C@H](O)[C@@H](O)C(=O)N2CCCC2)cc1 [Compound 67]
C (less than 10% inhibition): [4] | [5] | [6] | [8]
B (10-30% inhibition): [1] | [2] | [3] | [7] | [9] | [10]

CCC(C)c1ccc(NC(=O)[C@H](O)[C@@H](O)C(=O)N2CCCC2)cc1 (some centres unmarked) [Compound 68]
C (less than 10% inhibition): [1] | [2] | [3] | [4] | [5] | [8]
B (10-30% inhibition): [6] | [7] | [9] | [10]

O=C([C@H](O)[C@@H](O)C(=O)N1CCC(c2ccc(C(F)(F)F)cc2)CC1)N1CCCC1 [Compound 69]
C (less than 10% inhibition): [1] | [2] | [3] | [4] | [5] | [6] | [7] | [8] | [9] | [10]

O=C([C@H](O)[C@@H](O)C(=O)N1CCC(c2ccc3ccccc3c2)CC1)N1CCCC1 [Compound 70]
C (less than 10% inhibition): [1] | [2] | [3] | [5] | [6] | [7] | [8] | [10]
B (10-30% inhibition): [4] | [9]

O=C(Nc1ccc(Oc2ccccc2)cc1)[C@H](O)[C@@H](O)C(=O)N1CCCC1 [Compound 71]
B (10-30% inhibition): [1] | [3] | [4] | [5] | [6]
C (less than 10% inhibition): [2] | [7] | [8] | [9] | [10]

CN1CCN(c2ccc(NC(=O)[C@H](O)[C@@H](O)C(=O)N3CCCC3)cc2)CC1 [Compound 72]
C (less than 10% inhibition): [2] | [3] | [4] | [5] | [6] | [7] | [8] | [9]
B (10-30% inhibition): [1] | [10]

CN(C)CCOc1ccc(NC(=O)[C@H](O)[C@@H](O)C(=O)N2CCCC2)cc1 [Compound 73]
B (10-30% inhibition): [2] | [4]
C (less than 10% inhibition): [1] | [3] | [5] | [6] | [7] | [8] | [9] | [10]

CN(C)CCCOc1ccc(NC(=O)[C@H](O)[C@@H](O)C(=O)N2CCCC2)cc1 [Compound 74]
C (less than 10% inhibition): [2] | [3] | [4] | [7] | [8] | [9] | [10]
B (10-30% inhibition): [1] | [5] | [6]

O=C(Nc1ccc(-n2cccn2)cc1)[C@H](O)[C@@H](O)C(=O)N1CCCC1 [Compound 75]
B (10-30% inhibition): [4] | [6] | [7] | [10]
C (less than 10% inhibition): [1] | [2] | [3] | [5] | [8] | [9]

O=C(Nc1ccc(-c2cc[nH]n2)cc1)[C@H](O)[C@@H](O)C(=O)N1CCCC1 [Compound 76]
B (10-30% inhibition): [5] | [7]
C (less than 10% inhibition): [1] | [2] | [3] | [4] | [6] | [8] | [9] | [10]

C[C@H](O)[C@@H](NC(=O)[C@H](O)[C@@H](O)C(=O)N(C)C)C(=O)Nc1ccc(C#Cc2ccccc2)cc1 [Compound 77]
A (greater than 30% inhibition): [9]
B (10-30% inhibition): [8]
C (less than 10% inhibition): [1] | [2] | [3] | [4] | [5] | [6] | [7]
